Organism: Rattus norvegicus
Assay: DrugMatrix - Regimen: Daily Repeat
Format: toxicity, organism-based, Sprague-Dawley
Parameters: regimen Daily Repeat, gender Male, age 6-8 weeks
Conditions: in vivo, po, route oral GAVAGE, vehicle 100 % WATER; for ABSOLUTE BASOPHIL / ABSOLUTE EOSINOPHIL / ABSOLUTE LYMPHOCYTE / ABSOLUTE MONOCYTE / ABSOLUTE SEGMENTED NEUTROPHIL / BASOPHIL / EOSINOPHIL / ERYTHROCYTE COUNT / HEMATOCRIT / HEMOGLOBIN / LEUKOCYTE COUNT / LYMPHOCYTE / MEAN CORPUSCULAR HEMOGLOBIN / MEAN CORPUSCULAR HEMOGLOBIN CONCENTRATION / MEAN CORPUSCULAR VOLUME / MONOCYTE / NEUTROPHIL / NUCLEATED RED BLOOD CELLS / PLATELET COUNT: tissue Blood; for ALANINE AMINOTRANSFERASE / ALBUMIN / ALKALINE PHOSPHATASE / ASPARTATE AMINOTRANSFERASE / BLOOD UREA NITROGEN / CARBON DIOXIDE / CHLORIDE / CHOLESTEROL / CREATINE PHOSPHOKINASE / CREATININE / GLUCOSE / LACTATE DEHYDROGENASE / LIPASE / PHOSPHORUS / POTASSIUM / SODIUM / TOTAL BILIRUBIN / TOTAL PROTEIN / URIC ACID: tissue Plasma
[1] = 300 mg/kg, 120 h, dose level Low, time 5 day
[2] = 3000 mg/kg, 72 h, dose level High, time 3 day
[3] = 3000 mg/kg, 120 h, dose level High, time 5 day

Q: What does the source list for `CC(Cl)(Cl)Cl` [TRICHLOROETHANE]?
A: ABSOLUTE BASOPHIL [1]: 0 CELLS/uL; ABSOLUTE EOSINOPHIL [1]: 0 CELLS/uL; ABSOLUTE LYMPHOCYTE [1]: 11569 CELLS/uL; ABSOLUTE MONOCYTE [1]: 149.67 CELLS/uL; ABSOLUTE SEGMENTED NEUTROPHIL [1]: 1081.33 CELLS/uL; BASOPHIL [1]: 0%; EOSINOPHIL [1]: 0%; ERYTHROCYTE COUNT [1]: 5.76 x10E6/uL; HEMATOCRIT [1]: 36.17%; HEMOGLOBIN [1]: 14.07 G/DL; LEUKOCYTE COUNT [1]: 12.8 x10E3/uL; LYMPHOCYTE [1]: 90%; MEAN CORPUSCULAR HEMOGLOBIN [1]: 24.43 pg; MEAN CORPUSCULAR HEMOGLOBIN CONCENTRATION [1]: 38.9 G/DL; MEAN CORPUSCULAR VOLUME [1]: 62.7 fL; MONOCYTE [1]: 1%; NEUTROPHIL [1]: 9%; NUCLEATED RED BLOOD CELLS [1]: 0.33 /100WBC; PLATELET COUNT [1]: 1070.67 x10E3/uL; ALANINE AMINOTRANSFERASE [1]: 50.33 u/L; ALBUMIN [1]: 4.07 G/DL; ALKALINE PHOSPHATASE [1]: 394 u/L; ASPARTATE AMINOTRANSFERASE [1]: 95 u/L; BLOOD UREA NITROGEN [1]: 16.33 mg/dL; CARBON DIOXIDE [1]: 32.33 mmol/L; CHLORIDE [1]: 103.33 MEQ/L; CHOLESTEROL [1]: 65 mg/dL; CREATINE PHOSPHOKINASE [1]: 400 u/L; CREATININE [1]: 0.17 mg/dL; GLUCOSE [1]: 135.67 mg/dL; LACTATE DEHYDROGENASE [1]: 117.67 u/L; LIPASE [1]: 10.67 u/L; PHOSPHORUS [1]: 11.3 mg/dL; POTASSIUM [1]: 6.41 MEQ/L; SODIUM [1]: 148.03 MEQ/L; TOTAL BILIRUBIN [1]: 0.2 mg/dL; TOTAL PROTEIN [1]: 6.03 G/DL; URIC ACID [1]: 0.9 mg/dL; ABSOLUTE BASOPHIL [2]: 0 CELLS/uL; ABSOLUTE EOSINOPHIL [2]: 0 CELLS/uL; ABSOLUTE LYMPHOCYTE [2]: 11145.5 CELLS/uL; ABSOLUTE MONOCYTE [2]: 120.5 CELLS/uL; ABSOLUTE SEGMENTED NEUTROPHIL [2]: 784 CELLS/uL; BASOPHIL [2]: 0%; EOSINOPHIL [2]: 0%; ERYTHROCYTE COUNT [2]: 6.08 x10E6/uL; HEMATOCRIT [2]: 38.1%; HEMOGLOBIN [2]: 14.85 G/DL; LEUKOCYTE COUNT [2]: 12.05 x10E3/uL; LYMPHOCYTE [2]: 92.5%; MEAN CORPUSCULAR HEMOGLOBIN [2]: 24.45 pg; MEAN CORPUSCULAR HEMOGLOBIN CONCENTRATION [2]: 39 G/DL; MEAN CORPUSCULAR VOLUME [2]: 62.65 fL; MONOCYTE [2]: 1%; NEUTROPHIL [2]: 6.5%; NUCLEATED RED BLOOD CELLS [2]: 0.5 /100WBC; PLATELET COUNT [2]: 1361.5 x10E3/uL; ALANINE AMINOTRANSFERASE [2]: 49.5 u/L; ALBUMIN [2]: 4.15 G/DL; ALKALINE PHOSPHATASE [2]: 322 u/L; ASPARTATE AMINOTRANSFERASE [2]: 87.5 u/L; BLOOD UREA NITROGEN [2]: 11.5 mg/dL; CARBON DIOXIDE [2]: 33 mmol/L; CHLORIDE [2]: 102.5 MEQ/L; CHOLESTEROL [2]: 91.5 mg/dL; CREATINE PHOSPHOKINASE [2]: 450 u/L; CREATININE [2]: 0.17 mg/dL; GLUCOSE [2]: 131 mg/dL; LACTATE DEHYDROGENASE [2]: 260 u/L; LIPASE [2]: 9.5 u/L; PHOSPHORUS [2]: 9.5 mg/dL; POTASSIUM [2]: 5.71 MEQ/L; SODIUM [2]: 148.15 MEQ/L; TOTAL BILIRUBIN [2]: 0.1 mg/dL; TOTAL PROTEIN [2]: 6.35 G/DL; URIC ACID [2]: 0.5 mg/dL; ABSOLUTE BASOPHIL [3]: 0 CELLS/uL; ABSOLUTE EOSINOPHIL [3]: 0 CELLS/uL; ABSOLUTE LYMPHOCYTE [3]: 9273 CELLS/uL; ABSOLUTE MONOCYTE [3]: 138.67 CELLS/uL; ABSOLUTE SEGMENTED NEUTROPHIL [3]: 1121.67 CELLS/uL; BASOPHIL [3]: 0%; EOSINOPHIL [3]: 0%; ERYTHROCYTE COUNT [3]: 5.95 x10E6/uL; HEMATOCRIT [3]: 36.77%; HEMOGLOBIN [3]: 13.97 G/DL; LEUKOCYTE COUNT [3]: 10.53 x10E3/uL; LYMPHOCYTE [3]: 87.67%; MEAN CORPUSCULAR HEMOGLOBIN [3]: 23.57 pg; MEAN CORPUSCULAR HEMOGLOBIN CONCENTRATION [3]: 37.97 G/DL; MEAN CORPUSCULAR VOLUME [3]: 62 fL; MONOCYTE [3]: 1.33%; NEUTROPHIL [3]: 11%; NUCLEATED RED BLOOD CELLS [3]: 0 /100WBC; PLATELET COUNT [3]: 1168 x10E3/uL; ALANINE AMINOTRANSFERASE [3]: 46.33 u/L; ALBUMIN [3]: 4.03 G/DL; ALKALINE PHOSPHATASE [3]: 272 u/L; ASPARTATE AMINOTRANSFERASE [3]: 71 u/L; BLOOD UREA NITROGEN [3]: 14.33 mg/dL; CARBON DIOXIDE [3]: 30.67 mmol/L; CHLORIDE [3]: 100.33 MEQ/L; CHOLESTEROL [3]: 74 mg/dL; CREATINE PHOSPHOKINASE [3]: 156.67 u/L; CREATININE [3]: 0.17 mg/dL; GLUCOSE [3]: 120.67 mg/dL; LACTATE DEHYDROGENASE [3]: 107 u/L; LIPASE [3]: 10.33 u/L; PHOSPHORUS [3]: 12.33 mg/dL; POTASSIUM [3]: 6.12 MEQ/L; SODIUM [3]: 147.17 MEQ/L; TOTAL BILIRUBIN [3]: 0.13 mg/dL; TOTAL PROTEIN [3]: 6.2 G/DL; URIC ACID [3]: 1.1 mg/dL

— ChEMBL document CHEMBL3885881, “DrugMatrix”
